Source: patent publication US20260184675A1, “CHIRAL ISOMERIC SULFITE COMPOUND AND APPLICATION THEREOF” (Chengdu Hanova BioSciences Co., Ltd, priority 2024, published 2026)

Experiments:
Magnaporthe grisea = assay type: cell-based; details: 100 ppm; for Average antifungal rate (%) / Antifungal rate of Magnaporthe grisea (%), Replicate 1 / Antifungal rate of Magnaporthe grisea (%), Replicate 2 / Antifungal rate of Magnaporthe grisea (%), Replicate 3: 96-well plate; for Average antifungal rate (%): average of 3 replicates
[1] = test system: eggs of Harmonia axyridis; test: Effect on hatching of eggs of Harmonia axyridis, egg card immersion; assay type: in vivo; details: 100 ppm; for Number of hatched larvae 4 days after insecticide delivery, Replicate 1 / Number of hatched larvae 4 days after insecticide delivery, Replicate 2 / Number of hatched larvae 4 days after insecticide delivery, Replicate 3: Harmonia axyridis egg cards, immersed 30 seconds; for Hatching rate (%), Replicate 1 / Hatching rate (%), Replicate 2 / Hatching rate (%), Replicate 3: Harmonia axyridis eggs, 4 days after delivery
In short: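 Egg cards (~20 eggs each) dipped 30 s in 100 ppm insecticide, air dried and kept moist at 27° C; 5 cards per treatment, 3 replicates. Hatching assessed 4 days after treatment against pre-treatment egg counts, and control effect calculated by formula.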

[2] = test system: eggs of Tetranychus urticae; test: Effect on hatching of eggs of Tetranychus urticae, leaf disc method; assay type: in vivo; details: 5 ppm; for Hatching rate (%): 5 days after insecticide delivery
In short: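 This leaf disc test measured inhibition of Tetranychus urticae egg hatching. Eggs laid on Vicia faba discs were counted microscopically, and the discs were soaked for 10 seconds in compound at 5 ppm, with clear water as control. They were incubated under controlled temperature and humidity with strong indirect light, avoiding condensate. Hatched eggs, leaf damage and developmental abnormalities were recorded five days after delivery.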

eggs of Thrips = test: Effect on hatching of eggs of Thrips, leaf disc method; assay type: in vivo; details: 100 ppm; for Hatching rate (%): 5 days after insecticide delivery
In short: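 Egg-bearing Vicia faba leaf discs (diameter 2.0 cm, wetted filter paper beneath) were counted microscopically for baseline eggs. They were then soaked for 10 seconds in water or in test agent at 100 ppm. After moist incubation in lidded dishes, with controlled temperature and humidity and adequate indirect light, hatched larvae were counted five days post-delivery to judge hatching inhibition.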

eggs of Aleyrodidae = test: Effect on hatching of eggs of Aleyrodidae, leaf disc method; assay type: in vivo; details: 10 ppm; for Hatching rate (%), Replicate 1 / Hatching rate (%), Replicate 2 / Hatching rate (%), Replicate 3 / Number of hatched larvae 5 days after insecticide delivery, Replicate 1 / Number of hatched larvae 5 days after insecticide delivery, Replicate 2 / Number of hatched larvae 5 days after insecticide delivery, Replicate 3: Aleyrodidae eggs; for Hatching rate (%), Replicate 1 / Hatching rate (%), Replicate 2 / Hatching rate (%), Replicate 3: 5 days after delivery; for Number of hatched larvae 5 days after insecticide delivery, Replicate 1 / Number of hatched larvae 5 days after insecticide delivery, Replicate 2 / Number of hatched larvae 5 days after insecticide delivery, Replicate 3: leaf disc
In short: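 Leaf discs carrying Aleyrodidae eggs were first examined microscopically to record a baseline egg count. They were then dipped for 10 seconds in compound solution at 10 ppm or in clear water, taken out, and incubated with humidity maintained. Five days after delivery, the number of hatched larvae was recorded to assess hatching inhibition.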

[3] = Replicate 1, listed as 1-(S, S)
[4] = Replicate 2, listed as 1-(S, S)
[5] = Replicate 3, listed as 1-(S, S)
[6] = Replicate 1, listed as 1-(R, S)
[7] = Replicate 2, listed as 1-(R, S)
[8] = Replicate 3, listed as 1-(R, S)

C[C@@H](COS(=O)OCCF)Oc1ccc(Cl)cc1Cl (stereo partly drawn) [1-(S,S)]
inhibitory rate against Magnaporthe grisea (in words) (Magnaporthe grisea): strong inhibitory rate
Average antifungal rate (%) (Magnaporthe grisea): 97.35%
Antifungal rate of Magnaporthe grisea (%), Replicate 1 (Magnaporthe grisea): 99.38%
Antifungal rate of Magnaporthe grisea (%), Replicate 2 (Magnaporthe grisea): 95.02%
Antifungal rate of Magnaporthe grisea (%), Replicate 3 (Magnaporthe grisea): 97.64%
inhibitory activity on the hatching of eggs of Harmonia axyridis (in words) [1]: strong inhibitory activities
Number of hatched larvae 4 days after insecticide delivery, Replicate 1 ([1]; listed as 1-(S, S)): 0
Number of hatched larvae 4 days after insecticide delivery, Replicate 2 ([1]; listed as 1-(S, S)): 0
Number of hatched larvae 4 days after insecticide delivery, Replicate 3 ([1]; listed as 1-(S, S)): 0
Hatching rate (%), Replicate 1 ([1]; listed as 1-(S, S)): 0.00%
Hatching rate (%), Replicate 2 ([1]; listed as 1-(S, S)): 0.00%
Hatching rate (%), Replicate 3 ([1]; listed as 1-(S, S)): 0.00%
inhibitory activity on the hatching of eggs of Tetranychus urticae (in words) [2]: strong inhibitory activities
Hatching rate (%) [2, 3]: 0.00%
Hatching rate (%) [2, 4]: 0.00%
Number of hatched larvae 5 days after insecticide delivery [2, 3]: 0
Number of hatched larvae 5 days after insecticide delivery [2, 4]: 0
inhibitory activity on the hatching of eggs of Thrips (in words) (eggs of Thrips): strong inhibitory activities
Hatching rate (%) (eggs of Thrips; [3]): 0.00%
Hatching rate (%) (eggs of Thrips; [4]): 0.00%
Hatching rate (%) (eggs of Thrips; [5]): 0.00%
Number of hatched larvae 5 days after insecticide delivery (eggs of Thrips; [3]): 0
Number of hatched larvae 5 days after insecticide delivery (eggs of Thrips; [4]): 0
Number of hatched larvae 5 days after insecticide delivery (eggs of Thrips; [5]): 0
inhibitory activity on the hatching of eggs of Aleyrodidae (in words) (eggs of Aleyrodidae): strong inhibitory activities
Hatching rate (%), Replicate 1 (eggs of Aleyrodidae; listed as 1-(S, S)): 0.00%
Hatching rate (%), Replicate 2 (eggs of Aleyrodidae; listed as 1-(S, S)): 0.00%
Hatching rate (%), Replicate 3 (eggs of Aleyrodidae; listed as 1-(S, S)): 0.00%
Number of hatched larvae 5 days after insecticide delivery, Replicate 1 (eggs of Aleyrodidae; listed as 1-(S, S)): 0
Number of hatched larvae 5 days after insecticide delivery, Replicate 2 (eggs of Aleyrodidae; listed as 1-(S, S)): 0
Number of hatched larvae 5 days after insecticide delivery, Replicate 3 (eggs of Aleyrodidae; listed as 1-(S, S)): 0

CC(C)(COc1ccc(Cl)cc1Cl)OS(=O)OCCF (stereo not drawn) [Compound 10]
inhibitory rate against Magnaporthe grisea (in words) (Magnaporthe grisea): strong inhibitory rate
Average antifungal rate (%) (Magnaporthe grisea): 94.26%
Antifungal rate of Magnaporthe grisea (%), Replicate 1 (Magnaporthe grisea): 93.89%
Antifungal rate of Magnaporthe grisea (%), Replicate 2 (Magnaporthe grisea): 94.52%
Antifungal rate of Magnaporthe grisea (%), Replicate 3 (Magnaporthe grisea): 94.36%
inhibitory activity on the hatching of eggs of Harmonia axyridis (in words) [1]: strong inhibitory activities
Number of hatched larvae 4 days after insecticide delivery, Replicate 1 [1]: 4
Number of hatched larvae 4 days after insecticide delivery, Replicate 2 [1]: 3
Number of hatched larvae 4 days after insecticide delivery, Replicate 3 [1]: 7
Hatching rate (%), Replicate 1 [1]: 4.04%
Hatching rate (%), Replicate 2 [1]: 3.85%
Hatching rate (%), Replicate 3 [1]: 5.56%
inhibitory activity on the hatching of eggs of Tetranychus urticae (in words) [2]: strong inhibitory activities
Hatching rate (%) ([2]; Replicate 1): 1.94%
Hatching rate (%) ([2]; Replicate 2): 1.35%
Number of hatched larvae 5 days after insecticide delivery ([2]; Replicate 1): 2
Number of hatched larvae 5 days after insecticide delivery ([2]; Replicate 2): 1
inhibitory activity on the hatching of eggs of Thrips (in words) (eggs of Thrips): strong inhibitory activities
Hatching rate (%) (eggs of Thrips; Replicate 1): 0.99%
Hatching rate (%) (eggs of Thrips; Replicate 2): 0.00%
Hatching rate (%) (eggs of Thrips; Replicate 3): 0.00%
Number of hatched larvae 5 days after insecticide delivery (eggs of Thrips; Replicate 1): 1
Number of hatched larvae 5 days after insecticide delivery (eggs of Thrips; Replicate 2): 0
Number of hatched larvae 5 days after insecticide delivery (eggs of Thrips; Replicate 3): 0
inhibitory activity on the hatching of eggs of Aleyrodidae (in words) (eggs of Aleyrodidae): strong inhibitory activities
Hatching rate (%), Replicate 1 (eggs of Aleyrodidae): 0.76%
Hatching rate (%), Replicate 2 (eggs of Aleyrodidae): 0.00%
Hatching rate (%), Replicate 3 (eggs of Aleyrodidae): 1.61%
Number of hatched larvae 5 days after insecticide delivery, Replicate 1 (eggs of Aleyrodidae): 1
Number of hatched larvae 5 days after insecticide delivery, Replicate 2 (eggs of Aleyrodidae): 0
Number of hatched larvae 5 days after insecticide delivery, Replicate 3 (eggs of Aleyrodidae): 2

CC(C)(COS(=O)OCCF)Oc1ccc(Cl)cc1Cl (stereo not drawn) [Compound 10′]
inhibitory rate against Magnaporthe grisea (in words) (Magnaporthe grisea): strong inhibitory rate
Average antifungal rate (%) (Magnaporthe grisea): 94.31%
Antifungal rate of Magnaporthe grisea (%), Replicate 1 (Magnaporthe grisea): 94.01%
Antifungal rate of Magnaporthe grisea (%), Replicate 2 (Magnaporthe grisea): 95.16%
Antifungal rate of Magnaporthe grisea (%), Replicate 3 (Magnaporthe grisea): 93.77%
inhibitory activity on the hatching of eggs of Harmonia axyridis (in words) [1]: strong inhibitory activities
Number of hatched larvae 4 days after insecticide delivery, Replicate 1 [1]: 5
Number of hatched larvae 4 days after insecticide delivery, Replicate 2 [1]: 5
Number of hatched larvae 4 days after insecticide delivery, Replicate 3 [1]: 6
Hatching rate (%), Replicate 1 [1]: 5.75%
Hatching rate (%), Replicate 2 [1]: 5.26%
Hatching rate (%), Replicate 3 [1]: 4.92%
inhibitory activity on the hatching of eggs of Tetranychus urticae (in words) [2]: strong inhibitory activities
Hatching rate (%) ([2]; Replicate 1): 1.18%
Hatching rate (%) ([2]; Replicate 2): 1.10%
Number of hatched larvae 5 days after insecticide delivery ([2]; Replicate 1): 1
Number of hatched larvae 5 days after insecticide delivery ([2]; Replicate 2): 1
inhibitory activity on the hatching of eggs of Thrips (in words) (eggs of Thrips): strong inhibitory activities
Hatching rate (%) (eggs of Thrips; Replicate 1): 0.00%
Hatching rate (%) (eggs of Thrips; Replicate 2): 1.55%
Hatching rate (%) (eggs of Thrips; Replicate 3): 0.00%
Number of hatched larvae 5 days after insecticide delivery (eggs of Thrips; Replicate 1): 0
Number of hatched larvae 5 days after insecticide delivery (eggs of Thrips; Replicate 2): 2
Number of hatched larvae 5 days after insecticide delivery (eggs of Thrips; Replicate 3): 0
inhibitory activity on the hatching of eggs of Aleyrodidae (in words) (eggs of Aleyrodidae): strong inhibitory activities
Hatching rate (%), Replicate 1 (eggs of Aleyrodidae): 2.02%
Hatching rate (%), Replicate 2 (eggs of Aleyrodidae): 0.97%
Hatching rate (%), Replicate 3 (eggs of Aleyrodidae): 1.05%
Number of hatched larvae 5 days after insecticide delivery, Replicate 1 (eggs of Aleyrodidae): 2
Number of hatched larvae 5 days after insecticide delivery, Replicate 2 (eggs of Aleyrodidae): 1
Number of hatched larvae 5 days after insecticide delivery, Replicate 3 (eggs of Aleyrodidae): 1

C[C@H](COS(=O)OCCF)Oc1ccc(Cl)cc1Cl (stereo partly drawn) [1-(R,S)]
inhibitory rate against Magnaporthe grisea (in words) (Magnaporthe grisea): strong inhibitory rate
Average antifungal rate (%) (Magnaporthe grisea): 81.91%
Antifungal rate of Magnaporthe grisea (%), Replicate 1 (Magnaporthe grisea): 75.86%
Antifungal rate of Magnaporthe grisea (%), Replicate 2 (Magnaporthe grisea): 83.08%
Antifungal rate of Magnaporthe grisea (%), Replicate 3 (Magnaporthe grisea): 86.80%
Number of hatched larvae 4 days after insecticide delivery, Replicate 1 ([1]; listed as 1-(R, S)): 11
Number of hatched larvae 4 days after insecticide delivery, Replicate 2 ([1]; listed as 1-(R, S)): 9
Number of hatched larvae 4 days after insecticide delivery, Replicate 3 ([1]; listed as 1-(R, S)): 10
Hatching rate (%), Replicate 1 ([1]; listed as 1-(R, S)): 9.91%
Hatching rate (%), Replicate 2 ([1]; listed as 1-(R, S)): 10.23%
Hatching rate (%), Replicate 3 ([1]; listed as 1-(R, S)): 10.53%
Hatching rate (%) [2, 6]: 14.10%
Hatching rate (%) [2, 7]: 12.70%
Number of hatched larvae 5 days after insecticide delivery [2, 6]: 11
Number of hatched larvae 5 days after insecticide delivery [2, 7]: 88
Hatching rate (%) (eggs of Thrips; [6]): 9.57%
Hatching rate (%) (eggs of Thrips; [7]): 9.02%
Hatching rate (%) (eggs of Thrips; [8]): 7.95%
Number of hatched larvae 5 days after insecticide delivery (eggs of Thrips; [6]): 9
Number of hatched larvae 5 days after insecticide delivery (eggs of Thrips; [7]): 12
Number of hatched larvae 5 days after insecticide delivery (eggs of Thrips; [8]): 7
Hatching rate (%), Replicate 1 (eggs of Aleyrodidae; listed as 1-(R, S)): 7.95%
Hatching rate (%), Replicate 2 (eggs of Aleyrodidae; listed as 1-(R, S)): 7.41%
Hatching rate (%), Replicate 3 (eggs of Aleyrodidae; listed as 1-(R, S)): 7.44%
Number of hatched larvae 5 days after insecticide delivery, Replicate 1 (eggs of Aleyrodidae; listed as 1-(R, S)): 7
Number of hatched larvae 5 days after insecticide delivery, Replicate 2 (eggs of Aleyrodidae; listed as 1-(R, S)): 10
Number of hatched larvae 5 days after insecticide delivery, Replicate 3 (eggs of Aleyrodidae; listed as 1-(R, S)): 9
